Patent US20260167620A1, “MULTIFUNCTIONAL COMPOUND CAPABLE OF DEGRADING BTK KINASE, AND COMPOSITION AND USE” (HANGZHOU HEALZEN THERAPEUTICS CO., LTD., priority 2021, published 2026)

Molecular target: T1, BTK (Homo sapiens, UniProt Q06187)
T1 construct: endogenous in cells; host or cells: Mino cells
Test: BTK degradation activity test in Mino cells (Westernblot or Elisa)
Assay type: cell-based
Conditions: 24-72 h incubation
Protocol: The Mino cell line cells are 0.5˜1 million/well in 6-well plates. The compounds are diluted to different concentrations, added to the plate, and after 24-72 h of incubation, the cells are collected. After the cells were lysed, the total protein concentration in each well was determined with a BCA kit. The amount of BTK is determined using the Westernblot or Elisa method.

T1 sequence (Q06187 whole entry): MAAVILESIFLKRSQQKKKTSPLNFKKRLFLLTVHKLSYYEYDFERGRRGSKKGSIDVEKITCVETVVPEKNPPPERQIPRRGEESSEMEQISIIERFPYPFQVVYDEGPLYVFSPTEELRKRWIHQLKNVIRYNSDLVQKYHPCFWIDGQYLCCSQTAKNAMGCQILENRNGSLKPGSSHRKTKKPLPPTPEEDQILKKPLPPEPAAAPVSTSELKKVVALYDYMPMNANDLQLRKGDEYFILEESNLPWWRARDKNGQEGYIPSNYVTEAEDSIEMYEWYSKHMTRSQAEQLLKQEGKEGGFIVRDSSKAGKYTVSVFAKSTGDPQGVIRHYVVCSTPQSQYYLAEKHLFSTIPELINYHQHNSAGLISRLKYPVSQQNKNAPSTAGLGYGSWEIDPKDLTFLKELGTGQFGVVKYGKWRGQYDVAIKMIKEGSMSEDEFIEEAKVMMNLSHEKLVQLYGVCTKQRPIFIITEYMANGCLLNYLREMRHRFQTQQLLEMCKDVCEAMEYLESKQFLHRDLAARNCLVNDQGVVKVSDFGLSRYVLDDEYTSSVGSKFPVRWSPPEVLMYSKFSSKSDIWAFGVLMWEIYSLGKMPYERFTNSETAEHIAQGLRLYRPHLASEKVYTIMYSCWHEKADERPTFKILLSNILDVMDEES

Structure (SMILES)	DC50 [nM]
NC(=O)c1cnc(N2CCCCC2)cc1Nc1ccc(N2CCN(CC3CCN(c4ccc5c(c4)C(=O)N(C4CCC(=O)NC4=O)C5=O)C3)CC2)c(F)c1 (stereo not shown) [Compound 037, 4-((4-(4-((1-(2-(2,6-dioxopiperidin-3-yl)-1,3-dioxoisoindolin-5-yl)pyrrolidin-3-yl)methyl)piperazin-1-yl)-3-fluorophenyl)amino)-6-(piperidin-1-yl) nicotinamide]	< 10
NC(=O)c1cnc(N2CCCCC2)cc1Nc1ccc(C2CCN(CC3CCN(c4ccc5c(c4)C(=O)N(C4CCC(=O)NC4=O)C5=O)C3)CC2)cc1 (stereo not shown) [Compound 038, 4-((4-(1-((1-(2-(2,6-dioxopiperidin-3-yl)-1,3-dioxoisoindolin-5-yl)pyrrolidin-3-yl)methyl)piperidin-4-yl)phenyl)amino)-6-(piperidin-1-yl) nicotinamide]	< 10
Cc1nc(C(N)=O)c(Nc2ccc(C3CCN(CC4CCN(c5ccc6c(c5)C(=O)N(C5CCC(=O)NC5=O)C6=O)C4)CC3)cc2)nc1N1CCCCC1 (stereo not shown) [Compound 039, 3-((4-(1-((1-(2-(2,6-dioxopiperidin-3-yl)-1,3-dioxoisoindolin-5-yl)pyrrolidin-3-yl)methyl)piperidin-4-yl)phenyl)amino)-6-methyl-5-(piperidin-1-yl) pyrazine-2-carboxamide]	< 10
NC(=O)c1nnc(N2CCCCC2)cc1Nc1ccc(C2CCN(CC3CCN(c4ccc5c(c4)C(=O)N(C4CCC(=O)NC4=O)C5=O)C3)CC2)cc1 (stereo not shown) [Compound 040, 4-((4-(1-((1-(2-(2,6-dioxopiperidin-3-yl)-1,3-dioxoisoindolin-5-yl)pyrrolidin-3-yl)methyl)piperidin-4-yl)phenyl)amino)-6-(piperidin-1-yl) pyridazine-3-carboxamide]	< 10
NC(=O)c1nnc(N2CCC[C@@H](O)C2)cc1Nc1ccc(C2CCN(CC3CCN(c4ccc5c(c4)C(=O)N(C4CCC(=O)NC4=O)C5=O)C3)CC2)cc1 (stereo partly drawn) [Compound 041, 4-((4-(1-((1-(2-(2,6-dioxopiperidin-3-yl)-1,3-dioxoisoindolin-5-yl)pyrrolidin-3-yl)methyl)piperidin-4-yl)phenyl)amino)-6-((R)-3-hydroxypiperidin-1-yl) pyridazine-3-carboxamide]	< 10
NC(=O)c1nc(F)c(N2CCCCC2)nc1Nc1ccc(C2CCN(CC3CCN(c4ccc5c(c4)C(=O)N(C4CCC(=O)NC4=O)C5=O)C3)CC2)cc1 (stereo not shown) [Compound 042, 3-((4-(1-((1-(2-(2,6-dioxopiperidin-3-yl)-1,3-dioxoisoindolin-5-yl)pyrrolidin-3-yl)methyl)piperidin-4-yl)phenyl)amino)-6-fluoro-5-(piperidin-1-yl) pyrazine-2-carboxamide]	< 10
COc1nc(C(N)=O)c(Nc2ccc(C3CCN(CC4CCN(c5ccc6c(c5)C(=O)N(C5CCC(=O)NC5=O)C6=O)C4)CC3)cc2)nc1N1CCCCC1 (stereo not shown) [Compound 043, 3-((4-(1-((1-(2-(2,6-dioxopiperidin-3-yl)-1,3-dioxoisoindolin-5-yl)pyrrolidin-3-yl)methyl)piperidin-4-yl)phenyl)amino)-6-methoxy-5-(piperidin-1-yl) pyrazine-2-carboxamide]	< 10

The remaining lines, values ahead:

DC50 [nM]	Structure (SMILES)
< 10	CN1CCN(c2nnc(C(N)=O)c(Nc3ccc(N4CCC(CN5CCN(c6ccc(N7CCC(=O)NC7=O)cc6)CC5)CC4)nc3)n2)CC1 [Compound 047, 5-((6-(4-((4-(4-(2,4-dioxotetrahydropyrimidin-1(2H)-yl)phenyl)piperazin-1-yl)methyl)piperidin-1-yl)pyridin-3-yl)amino)-3-(4-methylpiperazin-1-yl)-1,2,4-triazine-6-carboxamide]
< 10	NC(=O)c1nnc(N2CCCCC2)nc1Nc1ccc(N2CC(CN3CCN(c4ccc5c(c4)C(=O)N(C4CCC(=O)NC4=O)C5=O)CC3)C2)cc1 (stereo not shown) [Compound 049, 5-((4-(3-((4-(2-(2,6-dioxopiperidin-3-yl)-1,3-dioxoisoindolin-5-yl)piperazin-1-yl)methyl)azetidin-1-yl)phenyl)amino)-3-(piperidin-1-yl)-1,2,4-triazine-6-carboxamide]
< 10	CN1CCN(c2nnc(C(N)=O)c(Nc3ccc(N4CCC(CN5CCN(c6ccc(N7CCC(=O)NC7=O)cc6)CC5)CC4)c(F)c3)n2)CC1 [Compound 054, 5-((4-(4-((4-(4-(2,4-dioxotetrahydropyrimidin-1(2H)-yl)phenyl)piperazin-1-yl)methyl)piperidin-1-yl)-3-fluorophenyl)amino)-3-(4-methylpiperazin-1-yl)-1,2,4-triazine-6-carboxamide]
< 10	NC(=O)c1nnc(N2CCCCC2)nc1Nc1ccc(C2CCN(C(=O)C3CCN(c4ccc5c(c4)C(=O)N(C4CCC(=O)NC4=O)C5=O)C3)CC2)cc1 (stereo not shown) [Compound 055, 5-((4-(1-(1-(2-(2,6-dioxopiperidin-3-yl)-1,3-dioxoisoindolin-5-yl)pyrrolidine-3-carbonyl)piperidin-4-yl)phenyl)amino)-3-(piperidin-1-yl)-1,2,4-triazine-6-carboxamide]
< 10	NC(=O)c1nnc(N2CCCCC2)nc1Nc1ccc(N2CCN(C(=O)C3CCN(c4ccc5c(c4)C(=O)N(C4CCC(=O)NC4=O)C5=O)C3)CC2)cc1 (stereo not shown) [Compound 056, 5-((4-(4-(1-(2-(2,6-dioxopiperidin-3-yl)-1,3-dioxoisoindolin-5-yl)pyrrolidine-3-carbonyl)piperazin-1-yl)phenyl)amino)-3-(piperidin-1-yl)-1,2,4-triazine-6-carboxamide]
< 10	NC(=O)c1nnc(N2CCCCC2)nc1Nc1ccc(C2CCN(C(=O)C3CCN(c4ccc5c(c4)C(=O)N(C4CCC(=O)NC4=O)C5=O)CC3)CC2)cc1 (stereo not shown) [Compound 057, 5-((4-(1-(1-(2-(2,6-dioxopiperidin-3-yl)-1,3-dioxoisoindolin-5-yl)piperidine-4-carbonyl)piperidin-4-yl)phenyl)amino)-3-(piperidin-1-yl)-1,2,4-triazine-6-carboxamide]
< 10	NC(=O)c1nnc(N2CCCCC2)nc1Nc1ccc(N2CCN(C(=O)C3CCN(c4ccc5c(c4)C(=O)N(C4CCC(=O)NC4=O)C5=O)CC3)CC2)cc1 (stereo not shown) [Compound 058, 5-((4-(4-(1-(2-(2,6-dioxopiperidin-3-yl)-1,3-dioxoisoindolin-5-yl)piperidine-4-carbonyl)piperazin-1-yl)phenyl)amino)-3-(piperidin-1-yl)-1,2,4-triazine-6-carboxamide]
< 10	NC(=O)c1nnc(N2CCCCC2)nc1Nc1ccc(N2CCC(C(=O)N3CCN(c4ccc5c(c4)C(=O)N(C4CCC(=O)NC4=O)C5=O)CC3)CC2)cc1 (stereo not shown) [Compound 060, 5-((4-(4-(4-(2-(2,6-dioxopiperidin-3-yl)-1,3-dioxoisoindolin-5-yl)piperazine-1-carbonyl)piperidin-1-yl)phenyl)amino)-3-(piperidin-1-yl)-1,2,4-triazine-6-carboxamide]
< 10	NC(=O)c1nnc(N2CCCCC2)nc1Nc1ccc(N2CCN(C(=O)C3CN(c4ccc5c(c4)C(=O)N(C4CCC(=O)NC4=O)C5=O)C3)CC2)cc1 (stereo not shown) [Compound 061, 5-((4-(4-(1-(2-(2,6-dioxopiperidin-3-yl)-1,3-dioxoisoindolin-5-yl)azetidine-3-carbonyl)piperazin-1-yl)phenyl)amino)-3-(piperidin-1-yl)-1,2,4-triazine-6-carboxamide]
